# Structures can show the parent of a compound that is named as a salt.
# Experiments:
# HIF1-alpha = test: Measurement of the stabilization of HIF1-alpha in HEKEA cells (beta-galactosidase complementation); type: cell-based, human; conditions: HEKEA_HIF1-alphaPLBL cells, 6 hours under normoxia, luminescence; molar concentration that produces 50% of the maximum response of this same compound
# From the text: Furthermore, a subject of the invention is also a uniform test for the direct measurement by beta-galactosidase complementation of the amount of HIF1-alpha protein in the nucleus of cells, preferably HEK cells, after treating the said cells with one or more test compounds, which consists in: • (a) inoculating, preferably in 384-well plates, the said cells in a suitable culture medium, preferably 1% foetal calf serum (abbreviated as FCS); • (b) adding the test compound(s) at a suitable concentration in a suitable solvent to the cells previously inoculated in the said culture medium; preferably the test compounds are diluted in 0.1% FCS; • (c) incubating the said cells thus prepared in an indicator at about 37° C., advantageously for about 6 hours; • (d) lysing the cells with a lysis buffer containing a chemiluminescent substrate for beta-galactosidase; • (e) incubating in the absence of light, before reading and measuring the luminescence, which is a function of the beta-galactosidase activity.
# The test is a cell test based on the principle of enzyme complementation, the enzyme used herein being beta-galactosidase. HEKEA cells are HEK cells stably expressing, and restricted in their nucleus, mutant beta-galactosidase (omega fragment, also known as EA) (line sold by DiscoverX). This construct makes it possible to obtain beta-galactosidase activity only when the protein comprising the Prolabel complementation fragment has migrated into the nucleus.
# The protein of interest comprising the Prolabel fragment is in this case an HIF1-alpha or HIF1-alpha mutated at the two prolines 402 and 564 replaced with alanines, is C-terminal fused via molecular biology (DiscoverX vector sold by Clontech) with the small complementation peptide fragment (Prolabel or ED, about 4 kDa). The vector coding for the chimeric protein HIF1-alpha_Prolabel is then transfected into HEKEA cells to obtain stable clones (HEKEA_HIF1-alphaPLBL).
# The amount of C-terminal Prolabel-“labelled” HIF1-alpha protein obtained after treating the cells to hypoxia or compounds that are potentially HIF activators is measured by adding to the cells a lysis buffer containing a chemiluminescent substrate for beta-galactosidase.
# The measurement of the beta-galactosidase activity will be proportional to the amount of Prolabel and thus of HIF1-alpha that has migrated into the nucleus of the cells.
# 1.3.1 Experiment Plan • 1) Inoculation of the cells on D0 • 2) Adherence for 24 hours under normoxia • 3) Preparation and addition of the products (Biomek 2000 and FX) on D+1 • 4) Incubation under normoxia for 6 hours • 5) Reading of the plates (by luminescence)
# The cells are inoculated with Multidrop in white, opaque-bottomed 384-well plates (Greiner ref 3704), in 30 μl of culture medium (1% FCS) a 10000 cells/well (cell plate).
# The test products are prepared at 3×10^−2 M in 100% DMSO and then diluted to 3×10^−4 M in medium containing 0.1% FCS (10 μl in 990 μl of MEM). They are then deposited by hand into column 12 of a round-bottomed 96-well plate (200 μl of each compound) known as the dilution plate (dl). The complete DL plate of 3×10^−4 M to 10^−9 M is then prepared with Biomek 2000 (programme: range of 10 points in series). For the references and controls, 100 μl of DMEM containing 0.1% FCS are added to column 1, 100 μl of Deferoxamine 10^−3M to column 2, wells A B C D and 100 μl of Deferoxamine 5×10^−3 M to column 2, wells E F G H.
# 3.3 μL are taken from the DL plate by pipetting with a Biomek FX 96 and placed in horizontal duplicate (columns 1 to 24) in each 384-well cell plate (HEKEA_HIF1-alphaPLBL cell plate).
# The cells are then placed for 6 hours in an incubator at 37° C. (ambient O2, 6% CO2).
# The kit used is the Prolabel chemiluminescent kit (Ref 93-0001 DiscoverX). […]
SMILES,EC50 (HIF1-alpha),melting point
"CC(C)(C)NC(=O)c1ccc(-n2nc3c(c2O)CSC3)nc1 [Compound 33, sodium 2-[5-(tert-butylcarbamoyl)pyridin-2-yl]-2,6-dihydro-4H-thieno[3,4-c]pyrazol-3-olate]",9.4 µM,–
"CCN(c1ccccc1)S(=O)(=O)c1ccc(-n2nc3c(c2O)N(Cc2ccccc2)C(=O)CC3)nc1 (as salt: Na) [Compound 35, sodium 4-benzyl-2-{5-[ethyl(phenyl)sulfamoyl]pyridin-2-yl}-5-oxo-4,5,6,7-tetrahydro-2H-pyrazolo[4,3-b]pyridin-3-olate]",–,> 250 °C
"COC1CCc2c1[nH]n(-c1ccccn1)c2=O (stereo not shown) [Compound 11, 6-methoxy-2-(pyridin-2-yl)-1,4,5,6-tetrahydrocyclopenta[c]pyrazol-3(2H)-one]",–,76 °C
"O=c1c2c([nH]n1-c1ccccn1)CCSC2 [Compound 12, 2-(pyridin-2-yl)-1,4,6,7-tetrahydrothiopyrano[4,3-c]pyrazol-3(2H)-one]",–,175 °C
"O=c1c2c([nH]n1-c1ccccn1)CCC2 [Compound 7, 2-(pyridin-2-yl)-1,4,5,6-tetrahydrocyclopenta[c]pyrazol-3(2H)-one]",6 µM,156 °C
"Cc1ccc(-n2nc3c(c2[O-])CSC3)nc1.[Na+] [Compound 31, sodium 2-(5-methylpyridin-2-yl)-2,6-dihydro-4H-thieno[3,4-c]pyrazol-3-olate]",–,> 220 °C
"O=c1c2c([nH]n1-c1ccc(S(=O)(=O)Nc3ccccn3)cn1)CSC2 [Compound 23, 6-(3-oxo-4,6-dihydro-1H-thieno[3,4-c]pyrazol-2(3H)-yl)-N-(pyridin-2-yl)pyridine-3-sulfonamide]",12 µM,> 260 °C
"CN(Cc1ccccn1)S(=O)(=O)c1ccc(-n2[nH]c3c(c2=O)CSC3)nc1 (as salt: HCl) [Compound 27, N-methyl-6-(3-oxo-4,6-dihydro-1H-thieno[3,4-c]pyrazol-2(3H)-yl)-N-(pyridin-2-ylmethyl)pyridine-3-sulfonamide]",–,198 °C
"COc1ccc(-n2nc3c(c2[O-])CSC3)nc1.[Na+] [Compound 34, sodium 2-(5-methoxypyridin-2-yl)-2,6-dihydro-4H-thieno[3,4-c]pyrazol-3-olate]",10 µM,> 220 °C
"CN(Cc1ccccn1)S(=O)(=O)c1ccc(-n2[nH]c3c(c2=O)CSC3)nc1 [Compound 27, N-methyl-6-(3-oxo-4,6-dihydro-1H-thieno[3,4-c]pyrazol-2(3H)-yl)-N-(pyridin-2-ylmethyl)pyridine-3-sulfonamide]",9.5 µM,–
"CCN(C(C)(C)C)S(=O)(=O)c1ccc(-n2nc3c(c2O)CSC3)nc1 (as salt: Na) [Compound 32, sodium 2-{5-[tert-butyl(ethyl)sulfamoyl]pyridin-2-yl}-2,6-dihydro-4H-thieno[3,4-c]pyrazol-3-olate]",–,> 260 °C

# Second part, the compound after the results:
EC50 (HIF1-alpha),melting point,SMILES
21 µM,–,"CN(C)c1ccnc(-n2[nH]c3c(c2=O)CSC3)c1 [Compound 60, 2-[4-(dimethylamino)pyridin-2-yl]-1,2,4,6-tetrahydro-3H-thieno[3,4-c]pyrazol-3-one hydrochloride]"
–,190 °C,"O=c1c2c([nH]n1-c1ccc(S(=O)(=O)N(CC(O)CO)C3CCCC3)cn1)CSC2 (stereo not shown) [Compound 53, N-cyclopentyl-N-(2,3-dihydroxypropyl)-6-(3-oxo-4,6-dihydro-1H-thieno[3,4-c]pyrazol-2(3H)-yl)pyridine-3-sulfonamide]"
–,> 260 °C,"CCc1ccnc(-n2[nH]c3c(c2=O)CSC3)c1 (as salt: Na) [Compound 61, sodium 2-(4-ethylpyridin-2-yl)-2,6-dihydro-4H-thieno[3,4-c]pyrazol-3-olate]"
3.9 µM,> 250 °C,"Cc1ccnc(-n2nc3c(c2[O-])CSC3)c1.[Na+] [Compound 62, sodium 2-(4-methylpyridin-2-yl)-2,6-dihydro-4H-thieno[3,4-c]pyrazol-3-olate]"
–,92 °C,"CC(C)c1ccnc(-n2[nH]c3c(c2=O)CSC3)c1 [Compound 65, 2-[4-(propan-2-yl)pyridin-2-yl]-1,2,4,6-tetrahydro-3H-thieno[3,4-c]pyrazol-3-one]"
–,230 °C,"CC(C)(C)COC(=O)c1ccc(-n2[nH]c3c(c2=O)CN(S(C)(=O)=O)CC3)nc1 [Compound 54, 2,2-dimethylpropyl 6-[5-(methylsulfonyl)-3-oxo-1,3,4,5,6,7-hexahydro-2H-pyrazolo[4,3-c]pyridin-2-yl]pyridine-3-carboxylate]"
–,182 °C,"CN(C)c1ccnc(-n2[nH]c3c(c2=O)CSC3)c1 (as salt: HCl) [Compound 60, 2-[4-(dimethylamino)pyridin-2-yl]-1,2,4,6-tetrahydro-3H-thieno[3,4-c]pyrazol-3-one hydrochloride]"
2.2 µM,200 °C,"CCN(c1ccccc1)S(=O)(=O)c1ccc(-n2[nH]c3c(c2=O)CCCCCC3)nc1 [Compound 37, N-ethyl-6-(3-oxo-1,3,4,5,6,7,8,9-octahydro-2H-cycloocta[c]pyrazol-2-yl)-N-phenylpyridine-3-sulfonamide]"
–,> 260 °C,"Oc1c2c(nn1-c1cc(OCc3cccnc3)ccn1)CSC2 (as salt: Na) [Compound 64, sodium 2-[4-(pyridin-3-ylmethoxy)pyridin-2-yl]-2,6-dihydro-4H-thieno[3,4-c]pyrazol-3-olate]"
3.8 µM,192 °C,"CCN(CC)S(=O)(=O)c1ccc(-n2[nH]c3c(c2=O)CSC3)nc1 [Compound 38, N,N-diethyl-6-(3-oxo-4,6-dihydro-1H-thieno[3,4-c]pyrazol-2(3H)-yl)pyridine-3-sulfonamide]"
–,130 °C,"CN(C(C)(C)C)S(=O)(=O)c1ccc(-n2nc3c(c2O)CSC3)nc1 (as salt: Na) [Compound 36, sodium 2-{5-[tert-butyl(methyl)sulfamoyl]pyridin-2-yl}-2,6-dihydro-4H-thieno[3,4-c]pyrazol-3-olate]"
